Measured values taken from patent US7355042B2, “Treatment of CNS disorders using CNS target modulators” (Hypnion, Inc., priority 2001, dated 2008).
Structures can show the parent of a compound that is named as a salt. Marks after values point to notes of the source that are not given here.

Key:
[1] = biological target: T1, M2 receptor from rat cardiac membranes (Rattus norvegicus, UniProt P10980); conditions: read-out: Ki of reference compounds, M2 binding assay; cited from earlier work
T1 construct: the M2 receptor was from rat cardiac membranes; from tissue; host or cells: rat cardiac membranes
T1 sequence (P10980 1-466): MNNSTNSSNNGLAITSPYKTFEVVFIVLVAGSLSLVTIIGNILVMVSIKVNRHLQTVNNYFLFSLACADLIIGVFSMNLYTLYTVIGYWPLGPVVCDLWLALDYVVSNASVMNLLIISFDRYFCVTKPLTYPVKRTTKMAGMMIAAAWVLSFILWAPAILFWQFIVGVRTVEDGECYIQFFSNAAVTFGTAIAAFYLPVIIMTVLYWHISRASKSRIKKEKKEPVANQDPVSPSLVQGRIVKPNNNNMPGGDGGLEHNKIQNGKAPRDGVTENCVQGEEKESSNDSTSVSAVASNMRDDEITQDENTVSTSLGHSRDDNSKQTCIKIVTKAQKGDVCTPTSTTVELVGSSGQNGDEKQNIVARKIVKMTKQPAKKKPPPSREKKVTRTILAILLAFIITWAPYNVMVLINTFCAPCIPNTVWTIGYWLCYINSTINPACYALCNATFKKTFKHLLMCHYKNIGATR

[2] = biological target: cloned hERG channels expressed in HEK293 cells (Homo sapiens, UniProt Q12809); assay: hERG block comparative study, whole cell recording; conditions: table title 1.0E−6
Sequence of cloned hERG channels expressed in HEK293 cells (Q12809 whole entry): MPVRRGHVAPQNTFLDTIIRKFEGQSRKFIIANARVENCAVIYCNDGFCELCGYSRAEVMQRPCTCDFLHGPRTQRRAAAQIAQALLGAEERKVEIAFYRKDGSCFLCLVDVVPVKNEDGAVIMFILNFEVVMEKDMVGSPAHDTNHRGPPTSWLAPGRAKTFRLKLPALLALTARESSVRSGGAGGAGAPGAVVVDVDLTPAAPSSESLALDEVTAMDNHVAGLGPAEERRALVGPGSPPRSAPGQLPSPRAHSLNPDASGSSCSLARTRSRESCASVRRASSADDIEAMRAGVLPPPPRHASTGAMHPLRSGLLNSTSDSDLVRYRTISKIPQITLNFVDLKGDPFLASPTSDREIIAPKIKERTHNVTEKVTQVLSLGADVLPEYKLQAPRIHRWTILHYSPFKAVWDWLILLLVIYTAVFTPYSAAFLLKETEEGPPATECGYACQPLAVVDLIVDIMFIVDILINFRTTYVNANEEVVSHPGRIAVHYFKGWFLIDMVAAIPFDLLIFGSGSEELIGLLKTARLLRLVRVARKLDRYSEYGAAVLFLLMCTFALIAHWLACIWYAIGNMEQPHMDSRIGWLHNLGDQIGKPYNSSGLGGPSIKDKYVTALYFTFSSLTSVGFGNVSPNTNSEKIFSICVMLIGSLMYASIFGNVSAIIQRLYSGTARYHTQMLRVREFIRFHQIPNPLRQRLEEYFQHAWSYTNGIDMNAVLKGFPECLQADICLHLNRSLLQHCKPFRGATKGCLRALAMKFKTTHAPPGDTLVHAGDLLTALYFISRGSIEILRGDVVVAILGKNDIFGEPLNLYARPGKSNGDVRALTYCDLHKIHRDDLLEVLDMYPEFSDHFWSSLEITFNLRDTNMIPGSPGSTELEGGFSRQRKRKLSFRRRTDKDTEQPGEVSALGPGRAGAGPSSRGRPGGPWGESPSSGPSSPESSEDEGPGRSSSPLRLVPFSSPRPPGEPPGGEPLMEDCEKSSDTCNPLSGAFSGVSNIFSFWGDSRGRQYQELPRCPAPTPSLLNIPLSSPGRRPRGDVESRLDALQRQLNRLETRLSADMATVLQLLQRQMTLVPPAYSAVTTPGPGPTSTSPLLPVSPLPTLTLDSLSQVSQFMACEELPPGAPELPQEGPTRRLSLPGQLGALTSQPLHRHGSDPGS

[3] = biological target: Norepinephrine Transporter (Homo sapiens, UniProt P23975); assay: Receptor selectivity binding comparison: Norepinephrine Transporter; conditions: 1.0E−6
Sequence of Norepinephrine Transporter (P23975 whole entry, species assumed): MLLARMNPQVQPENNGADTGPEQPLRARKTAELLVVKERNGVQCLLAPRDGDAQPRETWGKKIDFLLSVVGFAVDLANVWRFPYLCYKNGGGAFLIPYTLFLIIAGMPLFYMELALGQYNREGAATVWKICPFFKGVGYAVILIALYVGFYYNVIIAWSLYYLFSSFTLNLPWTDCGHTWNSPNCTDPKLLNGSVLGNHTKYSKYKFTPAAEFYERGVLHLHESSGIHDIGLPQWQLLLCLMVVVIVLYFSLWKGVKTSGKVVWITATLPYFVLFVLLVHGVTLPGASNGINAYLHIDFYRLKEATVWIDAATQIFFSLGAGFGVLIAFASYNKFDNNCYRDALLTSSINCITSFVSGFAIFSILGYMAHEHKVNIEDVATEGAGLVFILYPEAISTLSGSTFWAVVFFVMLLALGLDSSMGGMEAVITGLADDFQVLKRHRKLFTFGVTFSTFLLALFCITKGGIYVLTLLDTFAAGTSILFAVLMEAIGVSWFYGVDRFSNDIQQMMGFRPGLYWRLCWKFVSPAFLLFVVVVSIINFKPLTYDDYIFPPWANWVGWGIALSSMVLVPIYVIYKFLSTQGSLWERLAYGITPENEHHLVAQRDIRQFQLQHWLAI

Histamine, H2 = Histamine, H2 (Homo sapiens, UniProt P25021); assay: Receptor selectivity binding comparison: Histamine H2; conditions: 1.0E−6
Sequence of Histamine, H2 (P25021 whole entry): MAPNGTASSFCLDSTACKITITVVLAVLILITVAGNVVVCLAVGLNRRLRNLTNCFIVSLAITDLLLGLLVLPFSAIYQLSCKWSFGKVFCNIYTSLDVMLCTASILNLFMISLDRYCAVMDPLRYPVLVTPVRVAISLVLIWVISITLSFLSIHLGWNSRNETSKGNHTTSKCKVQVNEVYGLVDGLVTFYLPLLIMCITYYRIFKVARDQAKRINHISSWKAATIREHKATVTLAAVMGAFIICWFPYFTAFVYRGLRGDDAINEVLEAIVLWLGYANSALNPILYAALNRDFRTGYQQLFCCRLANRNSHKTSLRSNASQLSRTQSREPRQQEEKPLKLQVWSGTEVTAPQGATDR

[4] = biological target: T2, human recombinant M1 muscarinic receptor expressed in CHO cells (Homo sapiens, UniProt P11229); assay: M1 binding assay (human recombinant), [3H]-scopolamine N-methyl chloride; conditions: 1.0E−6
T2 construct: expressed in transfected cells; host or cells: CHO cells
T2 sequence (P11229 1-460): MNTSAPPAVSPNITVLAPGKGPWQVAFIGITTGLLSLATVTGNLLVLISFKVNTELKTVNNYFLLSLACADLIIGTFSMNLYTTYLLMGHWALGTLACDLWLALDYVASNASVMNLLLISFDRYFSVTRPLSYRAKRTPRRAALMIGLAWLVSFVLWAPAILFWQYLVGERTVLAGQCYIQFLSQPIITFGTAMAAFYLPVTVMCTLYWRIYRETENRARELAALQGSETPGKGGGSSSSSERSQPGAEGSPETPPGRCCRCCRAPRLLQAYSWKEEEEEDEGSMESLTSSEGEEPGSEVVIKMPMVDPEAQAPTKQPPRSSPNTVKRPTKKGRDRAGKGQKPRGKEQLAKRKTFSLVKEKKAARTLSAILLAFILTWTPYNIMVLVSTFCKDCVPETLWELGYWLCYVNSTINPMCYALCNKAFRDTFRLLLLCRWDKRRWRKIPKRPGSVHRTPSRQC

male Wistar rats = assay: Sleep-wakefulness, locomotor activity and body temperature monitoring (SCORE-2000); assay type: in vivo, rat; conditions: 30 mg/kg PO at CT-18
[5] = system: M3 receptor from guinea pig ileum membranes; conditions: read-out: Ki of reference compounds, M3 binding assay; cited from earlier work
[6] = biological target: T2, human recombinant M1 muscarinic receptor expressed in CHO cells; conditions: read-out: Ki of reference compounds, M1 binding assay; cited from earlier work
[7] = biological target: T3, human recombinant M2 muscarinic receptor expressed in CHO cells (Homo sapiens, UniProt P08172); assay: M2 binding assay (human recombinant); conditions: 1.0E−6
T3 construct: expressed in transfected cells; host or cells: CHO cells
T3 sequence (P08172 1-466): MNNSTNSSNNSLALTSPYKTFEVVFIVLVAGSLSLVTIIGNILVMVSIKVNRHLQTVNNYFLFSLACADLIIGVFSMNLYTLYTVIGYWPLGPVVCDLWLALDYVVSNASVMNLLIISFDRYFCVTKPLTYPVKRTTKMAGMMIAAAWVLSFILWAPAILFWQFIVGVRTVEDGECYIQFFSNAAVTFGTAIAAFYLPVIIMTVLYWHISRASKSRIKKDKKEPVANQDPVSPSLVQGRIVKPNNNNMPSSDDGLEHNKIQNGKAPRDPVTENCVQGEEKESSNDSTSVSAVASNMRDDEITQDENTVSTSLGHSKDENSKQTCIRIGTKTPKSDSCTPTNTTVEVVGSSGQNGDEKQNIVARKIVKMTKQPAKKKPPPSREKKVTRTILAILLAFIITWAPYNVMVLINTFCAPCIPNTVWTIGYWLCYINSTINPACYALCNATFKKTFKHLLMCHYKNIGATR

## CCN(CC)CC1CCCCN1CC(=O)N1c2ccccc2C(=O)Nc2cccnc21 (stereo not drawn) [AF-DX 116]
[1]
  Ki: 63 nM

## O=C(O)CCN1CCC(=C2c3ccccc3COc3ccccc32)CC1 [Compound 8a]
[2]
  Percent Inhibition, HERG: 4%
[3]
  Percent Inhibition, Norepinephrine Transporter: −3.9%
Histamine, H2
  Percent Inhibition, Histamine, H2: 33.4%
[4]
  Percent Inhibition, Muscarinic, M1 (Human Recombinant): 3.3%
Male Wistar rats
  Average Bout-Length: 12.2 min
  Maximum Bout Length: 28.9 min
  NREM Accum.: 65.8 min
  NREM Peak (%/hr): 75.5 %/hr
  Onset: 65 min

## C[N+]1(C)CCC(OC(=O)C(c2ccccc2)c2ccccc2)CC1 [4-DAMP methiodide]
[5]
  Ki: 37.5 nM
[6]
  Ki: 0.27 nM

## CN(C)CCC=C1c2ccccc2COc2ccccc21 [Doxepin, doxepin HCl, reference compound]
[2]
  Percent Inhibition, HERG: 23%**
[7]
  Percent Inhibition, Muscarinic, M2 (Human Recombinant): 74.0%
Histamine, H2
  Percent Inhibition, Histamine, H2: 74.7%
